In US10570122B2, “Compounds with anti-tumoral activity” (AB Science, priority 2015, dated 2020):

Experiments:
A498 = assay: CellTiter-Blue cell-based survival/proliferation assay, A498; settings: Homo sapiens; A498 kidney tumor cell line, 48 h
Summary of the method: (§1)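 Tenfold compound dilutions (0–10 μM) were added to 1·10^4 cells/well. Plates incubated 48 h at 37 °C. CellTiter-Blue reduction (4 h, 37 °C) was read as fluorescence at 590 nm, background-corrected with a cell-free blank.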

HUT78 = assay: CellTiter-Blue cell-based survival/proliferation assay, HUT78; settings: Homo sapiens, Lymphoma cell line HUT78, 48 h, read-out: Anti-tumoral activity (measured IC50) HUT78
Summary of the method: as §1

MDAMB231 = assay: CellTiter-Blue cell-based survival/proliferation assay, MDAMB231; settings: Homo sapiens, MDA-MB-231; MDAMB231 breast tumor cell line, 48 h
Summary of the method: as §1

PC3 = assay: CellTiter-Blue cell-based survival/proliferation assay, PC3; settings: Homo sapiens, PC-3; PC3 prostate tumor cell line, 48 h
Summary of the method: as §1

SW579 = assay: CellTiter-Blue cell-based survival/proliferation assay, SW579; settings: Homo sapiens; SW579 head & neck tumor cell line, 48 h
Summary of the method: as §1

U87MG = assay: CellTiter-Blue cell-based survival/proliferation assay, U87MG; settings: Homo sapiens, U-87 MG; U87_MG glioblastoma cell line, 48 h
Procedure: (§2) Cell-Based Proliferation Screening of Compounds
(§3) CellTiter-Blue cell-based survival/proliferation assay (Promega G8080) was performed on tumor cell lines. A total of 1·10^4 cells/well/50 μl were seeded in a 96-wells plate. Treatment was initiated by addition of a 2× drug solution of 1/10 serial dilutions ranging from 0 to 10 μM. Cells were grown for 48 h at 37° C. and then incubated with 10 μl/well of Promega CellTiter-Bleue reagent for 4 h at 37° C. The amount of resorufin dye formed was quantified by its fluorescence emission at 590 nm using a scanning multiwell spectrophotometer (OPTIMA, BMG labtech, France). A blank well without cells was used as a background control for the spectrophotometer.

HCT116 = assay: CellTiter-Blue cell-based survival/proliferation assay, HCT116; settings: Homo sapiens, HCT-116; HCT116 colorectal tumor cell line, 48 h
Summary of the method: as §1

MELWO = assay: CellTiter-Blue cell-based survival/proliferation assay, MELWO; settings: Homo sapiens; MEL_WO melanoma cell line, 48 h
Procedure: as §2, §3

HL60 = assay: CellTiter-Blue cell-based survival/proliferation assay, HL60; settings: Homo sapiens, HL-60, Leukemia cell line HL60, 48 h, read-out: Anti-tumoral activity (measured IC50) HL60
Summary of the method: as §1

KARPAS299 = assay: CellTiter-Blue cell-based survival/proliferation assay, KARPAS299; settings: Homo sapiens, KARPAS-299, Lymphoma cell line KARPAS299, 48 h, read-out: Anti-tumoral activity (measured IC50) KARPAS299
Summary of the method: as §1

PANC1 = assay: CellTiter-Blue cell-based survival/proliferation assay, PANC1; settings: Homo sapiens, PANC-1; PANC_1 pancreas tumor cell line, 48 h
Summary of the method: as §1

REC1 = assay: CellTiter-Blue cell-based survival/proliferation assay, REC1; settings: Homo sapiens, Lymphoma cell line REC1, 48 h, read-out: Anti-tumoral activity (measured IC50) REC1
Summary of the method: as §1

OPM2 = assay: CellTiter-Blue cell-based survival/proliferation assay, OPM2; settings: Homo sapiens, OPM-2, Myeloma cell line OPM2, 48 h, read-out: Anti-tumoral activity (measured IC50) OPM2
Summary of the method: as §1

CLS354 = assay: CellTiter-Blue cell-based survival/proliferation assay, CLS354; settings: Homo sapiens, CLS-354; CLS354_4 head & neck tumor cell line, 48 h
Summary of the method: as §1

A375 = assay: CellTiter-Blue cell-based survival/proliferation assay, A375; settings: Homo sapiens, A-375; A375 melanoma cell line, 48 h
Procedure: as §2, §3

U2OS = assay: CellTiter-Blue cell-based survival/proliferation assay, U2OS; settings: Homo sapiens; U2OS osteosarcoma cell line, 48 h
Procedure: as §2, §3

ACHN = assay: CellTiter-Blue cell-based survival/proliferation assay, ACHN; settings: Homo sapiens; ACHN kidney tumor cell line, 48 h
Summary of the method: as §1

A4513 = assay: CellTiter-Blue cell-based survival/proliferation assay, A4513; settings: Homo sapiens; A4513 Ewing cell line, 48 h
Procedure: as §2, §3

TOV112D = assay: CellTiter-Blue cell-based survival/proliferation assay, TOV112D; settings: Homo sapiens; TOV112D ovary tumor cell line, 48 h
Summary of the method: as §1

PLCPRF5 = assay: CellTiter-Blue cell-based survival/proliferation assay, PLCPRF5; settings: Homo sapiens, PLC-PRF-5; PLC_PRF5 liver tumor cell line, 48 h
Summary of the method: as §1

MESSA = assay: CellTiter-Blue cell-based survival/proliferation assay, MESSA; settings: Homo sapiens, MES-SA; MESSA ovary tumor cell line, 48 h
Summary of the method: as §1

DLD1 = assay: CellTiter-Blue cell-based survival/proliferation assay, DLD1; settings: Homo sapiens, DLD-1; DLD_1 colorectal tumor cell line, 48 h
Summary of the method: as §1

AGS = assay: CellTiter-Blue cell-based survival/proliferation assay, AGS; settings: Homo sapiens; AGS stomach tumor cell line, 48 h
Summary of the method: as §1

HEP2 = assay: CellTiter-Blue cell-based survival/proliferation assay, HEP2; settings: Homo sapiens, HEp-2; HEP2 head & neck tumor cell line, 48 h
Summary of the method: as §1

A549 = assay: CellTiter-Blue cell-based survival/proliferation assay, A549; settings: Homo sapiens; A549 lung tumor cell line, 48 h
Summary of the method: as §1

BT20 = assay: CellTiter-Blue cell-based survival/proliferation assay, BT20; settings: Homo sapiens, BT-20; BT20 breast tumor cell line, 48 h
Summary of the method: as §1

HEPG2 = assay: CellTiter-Blue cell-based survival/proliferation assay, HEPG2; settings: Homo sapiens; HEPG2 liver tumor cell line, 48 h
Summary of the method: as §1

DU145 = assay: CellTiter-Blue cell-based survival/proliferation assay, DU145; settings: Homo sapiens, DU-145; DU145 prostate tumor cell line, 48 h
Summary of the method: as §1

H1299 = assay: CellTiter-Blue cell-based survival/proliferation assay, H1299; settings: Homo sapiens, NCI-H1299; H1299 lung tumor cell line, 48 h
Summary of the method: as §1

U118 = assay: CellTiter-Blue cell-based survival/proliferation assay, U118; settings: Homo sapiens; U118 glioblastoma cell line, 48 h
Procedure: as §2, §3

HGC27 = assay: CellTiter-Blue cell-based survival/proliferation assay, HGC27; settings: Homo sapiens, HGC-27; HGC27 stomach tumor cell line, 48 h
Summary of the method: as §1

BXPC3 = assay: CellTiter-Blue cell-based survival/proliferation assay, BXPC3; settings: Homo sapiens, BXPC-3; BXPC3 pancreas tumor cell line, 48 h
Summary of the method: as §1

CALU6 = assay: CellTiter-Blue cell-based survival/proliferation assay, CALU6; settings: Homo sapiens, Calu-6; CALU6 lung tumor cell line, 48 h
Summary of the method: as §1

SMILES | IC50 (A498) [µM] | IC50 (MDAMB231) [µM] | IC50 (PC3) [µM] | IC50 (SW579) [µM] | IC50 (U87MG) [µM] | IC50 (HCT116) [µM] | IC50 (MELWO) [µM] | IC50 (HL60) [µM] | IC50 (PANC1) [µM] | IC50 (OPM2) [µM] | IC50 (CLS354) [µM] | IC50 (A375) [µM] | IC50 (U2OS) [µM] | IC50 (ACHN) [µM] | IC50 (A4513) [µM] | IC50 (TOV112D) [µM] | IC50 (PLCPRF5) [µM] | IC50 (MESSA) [µM] | IC50 (DLD1) [µM] | IC50 (AGS) [µM] | further results
COc1ccc(C)c(Nc2ncc(-c3ccc(-n4cccn4)nc3)o2)c1 [Example 001, (5-Methoxy-2-methyl-phenyl)-[5-(6-pyrazol-1-yl-pyridin-3-yl)-oxazol-2-yl]-amine] | > 1 | > 1 | > 1 | > 1 | > 1 | > 1 | > 1 | > 1 | > 1 | > 1 | > 1 | > 1 | > 1 | > 1 | > 1 | > 1 | > 1 | > 1 | > 1 | > 1 | IC50 (HUT78): > 1 µM; IC50 (KARPAS299): 0.5 to 1 µM; IC50 (REC1): 0.5 to 1 µM; IC50 (HEP2): > 1 µM; IC50 (A549): > 1 µM; IC50 (BT20): > 1 µM; IC50 (HEPG2): > 1 µM; IC50 (DU145): > 1 µM; IC50 (H1299): > 1 µM; IC50 (U118): > 1 µM; IC50 (HGC27): > 1 µM; IC50 (BXPC3): > 1 µM; IC50 (CALU6): > 1 µM
CCOCc1ccc(C)c(Nc2ncc(-c3ccc(-n4cccn4)c(OC)c3)o2)c1 [Example 002, (5-Ethoxymethyl-2-methyl-phenyl)-[5-(3-methoxy-4-pyrazol-1-yl-phenyl)-oxazol-2-yl]-amine] | > 1 | > 1 | > 1 | > 1 | > 1 | > 1 | > 1 | > 1 | > 1 | > 1 | > 1 | > 1 | > 1 | > 1 | > 1 | > 1 | > 1 | > 1 | > 1 | > 1 | IC50 (HUT78): > 1 µM; IC50 (KARPAS299): > 1 µM; IC50 (REC1): > 1 µM; IC50 (HEP2): > 1 µM; IC50 (A549): > 1 µM; IC50 (BT20): > 1 µM; IC50 (HEPG2): > 1 µM; IC50 (DU145): > 1 µM; IC50 (H1299): > 1 µM; IC50 (U118): > 1 µM; IC50 (HGC27): > 1 µM; IC50 (BXPC3): > 1 µM; IC50 (CALU6): > 1 µM
CCOCc1ccc(C)c(Nc2nnc(-c3ccc(N4CCNC4=O)cc3)o2)c1 [Example 008, 1-{4-[5-(5-Ethoxymethyl-(2-methyl-phenylamino))-[1,3,4]oxadiazol-2-yl]-phenyl}-imidazolidin-2-one] | > 1 | > 1 | ≤ 0.1 | 0.5 to 1 | > 1 | ≤ 0.1 | 0.5 to 1 | ≤ 0.1 | > 1 | ≤ 0.1 | 0.1 to 0.5 | ≤ 0.1 | > 1 | ≤ 0.1 | > 1 | ≤ 0.1 | > 1 | > 1 | > 1 | > 1 | IC50 (HUT78): ≤ 0.1 µM; IC50 (KARPAS299): ≤ 0.1 µM; IC50 (REC1): ≤ 0.1 µM; IC50 (HEP2): ≤ 0.1 µM; IC50 (BT20): > 1 µM; IC50 (HEPG2): > 1 µM; IC50 (DU145): > 1 µM; IC50 (H1299): > 1 µM; IC50 (U118): > 1 µM; IC50 (HGC27): 0.5 to 1 µM; IC50 (BXPC3): > 1 µM; IC50 (CALU6): > 1 µM
CCOCc1ccc(C)c(Nc2nnc(-c3ccc(-n4cccn4)cc3)o2)c1 [Example 009, (5-Ethoxymethyl-2-methyl-phenyl)-[5-(4-pyrazol-1-yl-phenyl)-[1,3,4]oxadiazol-2-yl]-amine] | > 1 | > 1 | > 1 | > 1 | > 1 | > 1 | > 1 | > 1 | > 1 | > 1 | > 1 | > 1 | > 1 | > 1 | > 1 | > 1 | > 1 | > 1 | > 1 | > 1 | IC50 (HEP2): > 1 µM; IC50 (A549): > 1 µM; IC50 (BT20): > 1 µM; IC50 (HEPG2): > 1 µM; IC50 (DU145): > 1 µM; IC50 (H1299): > 1 µM; IC50 (U118): > 1 µM; IC50 (HGC27): > 1 µM; IC50 (BXPC3): > 1 µM; IC50 (CALU6): > 1 µM
